This is an account of results in ChEMBL document CHEMBL1158659, “The alkaloids of Delphinium cashmirianum” (J Nat Prod, 1979).

The subject of series [1] is Oryctolagus cuniculus. Description: Cardiovascular activity in Albino rabbit assessed as change in heart rate tested at basal heart rate of 170 beats/min at 0.10 mg/kg, iv by physiograph 4. The class given is functional. The following applies: dose 0.1 mg/kg.
Series [2] relates to Oryctolagus cuniculus. The series can be described thus: Cardiovascular activity in Albino rabbit assessed as change in heart rate tested at basal heart rate of 170 beats/min at 0.25 mg/kg, iv by physiograph 4. The class given is functional.
Series [3] has as its system Oryctolagus cuniculus. The series can be described thus: Cardiovascular activity in Albino rabbit assessed as change in heart rate tested at basal heart rate of 170 beats/min at 0.50 mg/kg, iv by physiograph 4. The class given is functional. The following applies: dose 0.5 mg/kg.
The subject of series [4] is Oryctolagus cuniculus. Description: Cardiovascular activity in Albino rabbit assessed as change in heart rate tested at basal heart rate of 170 beats/min at 1.0 mg/kg, iv by physiograph 4. The series is classed as functional.
Series [5] relates to Oryctolagus cuniculus. Description: Cardiovascular activity in Albino rabbit assessed as change in heart rate tested at basal heart rate of 180 beats/min at 1.0 mg/kg, iv by physiograph 4. The class given is functional.
Series [6] relates to Oryctolagus cuniculus. Description: Cardiotoxicity in iv dosed Albino rabbit assessed as time to produce arrhythmias tested at basal heart rate of 170 beats/min. The following applies: in vivo. The class given is toxicity, organism-based.
For series [7], the system named is Oryctolagus cuniculus. Description: Cardiotoxicity in iv dosed Albino rabbit assessed as drug level to produce arrhythmias tested at basal heart rate of 170 beats/min. The note with it: in vivo. The series is classed as toxicity, organism-based.
The test system of series [8] is Oryctolagus cuniculus. Description: Cardiotoxicity in iv dosed Albino rabbit assessed as drug level to produce arrhythmias tested at basal heart rate of 180 beats/min. The class given is toxicity, organism-based. The note with it: in vivo.
Series [9] relates to Oryctolagus cuniculus. The series can be described thus: Cardiotoxicity in iv dosed Albino rabbit assessed as time to produce arrhythmias tested at basal heart rate of 180 beats/min. The series is classed as toxicity, organism-based. The following applies: in vivo.
The species entered for series [10] is Cavia porcellus. Description: Cardiovascular activity in albino guinea pig atria assessed as increase in heart rate by physiograph 4. The series is classed as functional, tissue-based. The following applies: Cardiac atrium.
Series [11] can be described thus: Arrhythmogenic activity in albino guinea pig atria at 100 uM. The class given is tissue-based, Cavia porcellus, Cardiac atrium.
Series [12] can be described thus: Arrhythmogenic activity in albino guinea pig atria after repeated atrial washing. The class given is tissue-based, Cavia porcellus, Cardiac atrium.
Series [13] concerns Oryctolagus cuniculus. Description: Cardiovascular activity in Albino rabbit assessed as change in heart rate tested at basal heart rate of 190 beats/min at 0.10 mg/kg, iv by physiograph 4. The class given is functional. The note with it: dose 0.1 mg/kg.
Series [14] deals with Oryctolagus cuniculus. The series can be described thus: Cardiovascular activity in Albino rabbit assessed as change in heart rate tested at basal heart rate of 190 beats/min at 0.25 mg/kg, iv by physiograph 4. The series is classed as functional.
Series [15] concerns Oryctolagus cuniculus. The series can be described thus: Cardiovascular activity in Albino rabbit assessed as change in heart rate tested at basal heart rate of 190 beats/min at 0.50 mg/kg, iv by physiograph 4. The class given is functional. The following applies: dose 0.5 mg/kg.
Series [16] has as its system Oryctolagus cuniculus. Description: Cardiovascular activity in Albino rabbit assessed as change in heart rate tested at basal heart rate of 190 beats/min at 1.0 mg/kg, iv by physiograph 4. The class given is functional.
In series [17] the test system is Oryctolagus cuniculus. Description: Cardiotoxicity in iv dosed Albino rabbit assessed as drug level to produce arrhythmias tested at basal heart rate of 190 beats/min. The series is classed as toxicity, organism-based. The following applies: in vivo.
The subject of series [18] is Oryctolagus cuniculus. The series can be described thus: Cardiotoxicity in iv dosed Albino rabbit assessed as time to produce arrhythmias tested at basal heart rate of 190 beats/min. The series is classed as toxicity, organism-based. The note with it: in vivo.
Series [19] is described as follows: Arrhythmogenic activity in albino guinea pig atria at 10 uM after repeated atrial washing. The class given is tissue-based, Cavia porcellus, Cardiac atrium.
Series [20] is filed under the species Cavia porcellus. Description: Cardiovascular activity in albino guinea pig atria assessed as increase in heart rate at 100 uM by physiograph 4. The series is classed as functional, tissue-based. The following applies: Cardiac atrium.
Series [21] in a line: Arrhythmogenic activity in albino guinea pig atria at 30 uM. The class given is tissue-based, Cavia porcellus, Cardiac atrium.
The test system of series [22] is Oryctolagus cuniculus. The series can be described thus: Cardiovascular activity in Albino rabbit assessed as sinusoidal heart rate tested at basal heart rate of 150 beats/min at 0.005 mg/kg, iv by physiograph 4. The series is classed as functional.
The test system of series [23] is Oryctolagus cuniculus. Description: Cardiovascular activity in Albino rabbit assessed as sinusoidal heart rate tested at basal heart rate of 150 beats/min at 0.010 mg/kg, iv by physiograph 4. The class given is functional. The following applies: dose 0.01 mg/kg.
Series [24] concerns Oryctolagus cuniculus. The series can be described thus: Cardiotoxicity in iv dosed Albino rabbit assessed as drug level to produce arrhythmias tested at basal heart rate of 150 beats/min upto 30 mins. The series is classed as toxicity, organism-based. The following applies: in vivo, 0.5 h.
The subject of series [25] is Oryctolagus cuniculus. Description: Cardiotoxicity in iv dosed Albino rabbit assessed as drug level to produce arrhythmias tested at basal heart rate of 150 beats/min. The class given is toxicity, organism-based. The note with it: in vivo.
The test system of series [26] is Oryctolagus cuniculus. The series can be described thus: Cardiotoxicity in iv dosed Albino rabbit assessed as time to produce arrhythmias tested at basal heart rate of 150 beats/min. The following applies: in vivo. The class given is toxicity, organism-based.
Series [27] deals with Oryctolagus cuniculus. Description: Cardiovascular activity in Albino rabbit assessed as change in heart rate tested at basal heart rate of 180 beats/min at 0.25 mg/kg, iv by physiograph 4. The class given is functional.
The test system of series [28] is Oryctolagus cuniculus. The series can be described thus: Cardiovascular activity in Albino rabbit assessed as change in heart rate tested at basal heart rate of 180 beats/min at 0.50 mg/kg, iv by physiograph 4. The series is classed as functional. The following applies: dose 0.5 mg/kg.
Series [29] has as its system Oryctolagus cuniculus. Description: Cardiovascular activity in Albino rabbit assessed as change in heart rate tested at basal heart rate of 180 beats/min at 5.0 mg/kg, iv by physiograph 4. The series is classed as functional.
The test system of series [30] is Oryctolagus cuniculus. Description: Cardiovascular activity in Albino rabbit assessed as sinusoidal heart rate tested at basal heart rate of 180 beats/min at 0.05 mg/kg, iv by physiograph 4. The series is classed as functional.
Series [31] relates to Oryctolagus cuniculus. The series can be described thus: Cardiovascular activity in Albino rabbit assessed as change in heart rate tested at basal heart rate of 180 beats/min at 0.10 mg/kg, iv by physiograph 4. The series is classed as functional. The note with it: dose 0.1 mg/kg.

Molecules are shown by their SMILES. Active and inactive are the calls of the source. The rule behind the calls is not given here.

With `CCN1C[C@]2(OC(=O)c3ccccc3N)CC[C@H](OC)[C@@]34[C@@H]2C[C@H]([C@@H]13)[C@@]1(O)C[C@H](OC)[C@H]2C[C@@H]4[C@]1(O)[C@H]2OC`, the Activity is 8 bpm in the series on Oryctolagus cuniculus [1]; 5 bpm in the series with Oryctolagus cuniculus [2]; 0 bpm in the series on Oryctolagus cuniculus [3]; 0 bpm in the series on Oryctolagus cuniculus [4]; 0 bpm in the series on Oryctolagus cuniculus [5]; 52 s in the series on Oryctolagus cuniculus [6]. In addition, the Activity in the series on Oryctolagus cuniculus [7] worked out at 1 mg/kg; in the series with Oryctolagus cuniculus [8], 1 mg/kg; in the series on Oryctolagus cuniculus [9] it was 85 s.

For the compound `CCN1C[C@]2(OC(=O)c3ccccc3NC(C)=O)CC[C@H](OC)[C@@]34[C@@H]2C[C@@H]([C@@H]13)[C@@]1(O)C[C@H](OC)[C@H]2C[C@@H]4[C@]1(O)[C@H]2OC`, the outcome in the series listed under Cavia porcellus [10] and in the series listed under Cavia porcellus [20] was inactive. Further, the Activity entry in [11] is “Toxic”; in series [12], “Non-toxic”; with Oryctolagus cuniculus [13], 0 bpm; in the series on Oryctolagus cuniculus [14], -5 bpm; with Oryctolagus cuniculus [15], -30 bpm; in the series with Oryctolagus cuniculus [16], -35 bpm. Further, the Activity in the series on Oryctolagus cuniculus [17] was 1 mg/kg; with Oryctolagus cuniculus [18], 45 s; in [19], “Toxic”.

Regarding `CCN1C[C@]2(COC)[C@H](O)C[C@H](OC)[C@@]34[C@@H]5C[C@@]6(O)[C@H](OC(=O)c7ccccc7)[C@@H]5[C@@](OC(C)=O)([C@@H]([C@H](OC)[C@H]23)[C@@H]14)[C@@H](O)[C@@H]6OC` [ACONITINE], the Activity result in the series listed under Cavia porcellus [10] was “Dose-dependent effect”; in series [21], “Toxic”; in the series on Oryctolagus cuniculus [17] it was 0.1 mg/kg; in the series on Oryctolagus cuniculus [18] it was 12 s; in the series with Oryctolagus cuniculus [22] it was 110 bpm; with Oryctolagus cuniculus [23], 170 bpm. Besides, the Activity with Oryctolagus cuniculus [24] was found to be 0.005 mg/kg; in the series on Oryctolagus cuniculus [25], 0.01 mg/kg; with Oryctolagus cuniculus [26], 30 s.

On to `CCN1C[C@]2(COC(=O)c3ccccc3N)CC[C@H](OC)[C@]34C1[C@](O)([C@@H](OC)[C@H]23)[C@@]1(O)C[C@H](OC)[C@H]2C[C@@H]4[C@@H]1[C@H]2OC` [ANTHRANOYLLYCOCTONINE], for which the figures for the Activity in the series on Oryctolagus cuniculus [2], in the series on Oryctolagus cuniculus [3] and with Oryctolagus cuniculus [4] were 8 bpm, 5 bpm and -5 bpm, respectively.

`CCN1C[C@]2(COC(=O)c3ccccc3NC(=O)CCC(N)=O)CC[C@H](OC)[C@@]34[C@@H]5C[C@H]6[C@H](OC)[C@@H]5[C@](O)(C[C@@H]6OC)[C@](O)([C@@H](OC)[C@H]23)[C@@H]14` [AVADHARIDINE]: the Activity is listed as 5 bpm in the series on Oryctolagus cuniculus [27]; 0 bpm in the series on Oryctolagus cuniculus [28]; 0 bpm in the series on Oryctolagus cuniculus [5]; -10 bpm in the series on Oryctolagus cuniculus [29]; 0 bpm with Oryctolagus cuniculus [30]; 8 bpm with Oryctolagus cuniculus [31].
